Experimental data reported in US6914045B2, “Glycopeptide antibiotics” (Wyeth Holdings Corporation, priority 2001, dated 2005).
In brackets after ≈: the same amount, converted by molar mass.

What was measured:
Test in all cases: in vitro antibacterial evaluation, MIC by broth dilution
Format in all cases: cell-based
Streptococcus sp. = conditions: broth dilution, 18 hours at 35° C.
Method in brief: (§1)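 MIC, the lowest antibiotic concentration preventing growth, was read across 64-0.06 μg/mL with 5×10^5 CFU/mL inoculum. Method followed NCCLS M7-A2 broth dilution using Mueller-Hinton II; Gram-positive strains covered recent methicillin-, penicillin- and/or vancomycin-resistant clinical isolates.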

Enterococcus sp. = conditions: broth dilution, 18 hours at 35° C.
Method in brief: as §1

Staphylococcus sp. = conditions: broth dilution, 18 hours at 35° C.; for MIC Staphylococcus aureus (ATCC 29213): strain ATCC 29213; for MIC Staphylococcus aureus (GC 1131): strain GC 1131; for MIC Staphylococcus aureus (GC 4541): strain GC 4541; for MIC Staphylococcus aureus-SMITH (GC 4543): strain GC 4543; for MIC Coagulase Negative Staphylococcus (GC 4547): strain GC 4547; for MIC Coagulase Negative Staphylococcus (GC 4548): strain GC 4548; for MIC Coagulase Negative Staphylococcus (GC 4549): strain GC 4549
Method in brief: as §1

Escherichia coli = conditions: 18 hours at 35° C.
[1] = inoculum 5×10^5 CFU/mL, strain ATCC 6301
[2] = inoculum 5×10^5 CFU/mL, strain GC 1894
[3] = inoculum 5×10^5 CFU/mL, strain ATCC 29212
[4] = inoculum 5×10^5 CFU/mL, strain GC 2242
[5] = inoculum 5×10^5 CFU/mL, strain GC 2243
[6] = inoculum 5×10^5 CFU/mL, strain GC 4556
[7] = inoculum 5×10^5 CFU/mL, strain GC 4558
[8] = inoculum 5×10^5 CFU/mL, strain GC 6189

Which results are given for `CC(c1ccccc1)C1NC(=O)CNC(=O)C(CO)NC(=O)C(C(O)C2CNC(=N)N2C2OC(CO)C(O)C(O)C2O)NC(=O)C(C(O)C2CNC(=N)N2)NC(=O)C(Cc2ccc(OC3OC(CO)C(OC4OC5COC6(CCCCCCCCCCC6)OC5C(O)C4O)C(O)C3O)cc2)NC1=O` (stereo not drawn) [Example 209]?
MIC Streptococcus pneumoniae (ATCC 6301) (Streptococcus sp.): <0.06 µg/mL; MIC Streptococcus pneumoniae (GC 1894) (Streptococcus sp.): <0.06 µg/mL; MIC Streptococcus pneumoniae (ATCC 6301) (Streptococcus sp.; [1]): <0.06 µg/mL; MIC Streptococcus pneumoniae (GC 1894) (Streptococcus sp.; [2]): <0.06 µg/mL; MIC Enterococcus avium (GC 4558) (Enterococcus sp.): 4 µg/mL (≈ 2.74 µM); MIC Enterococcus faecalis (ATCC 29212) (Enterococcus sp.): 4 µg/mL (≈ 2.74 µM); MIC Enterococcus faecalis (GC 2242) (Enterococcus sp.): 4 µg/mL (≈ 2.74 µM); MIC Enterococcus faecalis (GC 6189) (Enterococcus sp.): 1 µg/mL (≈ 0.685 µM); MIC Enterococcus faecium (GC 2243) (Enterococcus sp.): 1 µg/mL (≈ 0.685 µM); MIC Enterococcus faecium (GC 4556) (Enterococcus sp.): 4 µg/mL (≈ 2.74 µM); MIC Enterococcus faecalis (ATCC 29212) (Enterococcus sp.; [3]): 4 µg/mL (≈ 2.74 µM); MIC Enterococcus faecalis (GC 2242) (Enterococcus sp.; [4]): 4 µg/mL (≈ 2.74 µM); MIC Enterococcus faecium (GC 2243) (Enterococcus sp.; [5]): 1 µg/mL (≈ 0.685 µM); MIC Enterococcus faecium (GC 4556) (Enterococcus sp.; [6]): 4 µg/mL (≈ 2.74 µM); MIC Enterococcus avium (GC 4558) (Enterococcus sp.; [7]): 4 µg/mL (≈ 2.74 µM); MIC Enterococcus faecalis (GC 6189) (Enterococcus sp.; [8]): 1 µg/mL (≈ 0.685 µM); MIC Staphylococcus aureus (ATCC 29213) (Staphylococcus sp.): 4 µg/mL (≈ 2.74 µM); MIC Staphylococcus aureus (GC 1131) (Staphylococcus sp.): 2 µg/mL (≈ 1.37 µM); MIC Staphylococcus aureus (GC 4541) (Staphylococcus sp.): 2 µg/mL (≈ 1.37 µM); MIC Staphylococcus aureus-SMITH (GC 4543) (Staphylococcus sp.): 1 µg/mL (≈ 0.685 µM); MIC Coagulase Negative Staphylococcus (GC 4547) (Staphylococcus sp.): 4 µg/mL (≈ 2.74 µM); MIC Coagulase Negative Staphylococcus (GC 4548) (Staphylococcus sp.): 1 µg/mL (≈ 0.685 µM); MIC Coagulase Negative Staphylococcus (GC 4549) (Staphylococcus sp.): 1 µg/mL (≈ 0.685 µM); MIC Coagulase Negative Staphylococcus (GC 6257) (Staphylococcus sp.; strain GC 6257): 2 µg/mL (≈ 1.37 µM); MIC Escherichia coli (ATCC 25922) (Escherichia coli): 64 µg/mL (≈ 43.8 µM); MIC Escherichia coli (GC 4559) (Escherichia coli): >64 µg/mL; MIC Escherichia coli (GC 4560) (Escherichia coli): 4 µg/mL (≈ 2.74 µM)

For `CC(c1ccccc1)C1NC(=O)CNC(=O)C(CO)NC(=O)C(C(O)C2CNC(=N)N2C2OC(CO)C(O)C(O)C2O)NC(=O)C(C(O)C2CNC(=N)N2)NC(=O)C(Cc2ccc(OC3OC(CO)C(OC4OC5COC6(OC5C(O)C4O)C(C)CCCC6C)C(O)C3O)cc2)NC1=O` (stereo not drawn) [Example 206], which “MIC Streptococcus agalactiae (GC 4564)” value (Streptococcus sp.) is on record?
The value was 0.25 µg/mL (≈ 0.178 µM).

And the “MIC Streptococcus pneumoniae (ATCC 6301)” value (Streptococcus sp.)?
Its value is under 0.12 µg/mL.

What about the “MIC Streptococcus pneumoniae (GC 1894)” value (Streptococcus sp.) of the same molecule?
Its value is under 0.12 µg/mL.

And the “MIC Streptococcus pneumoniae (GC 4565)” value (Streptococcus sp.)?
The value was under 0.12 µg/mL.

What about the “MIC Streptococcus pyogenes (GC 4563)” value (Streptococcus sp.) of the same molecule?
Its value is 1 µg/mL (≈ 0.713 µM).

What about the “MIC Streptococcus pneumoniae (ATCC 6301)” value (Streptococcus sp.; [1]) of the same molecule?
The value was under 0.12 µg/mL.

What about the “MIC Streptococcus pneumoniae (GC 1894)” value (Streptococcus sp.; [2]) of the same molecule?
Its value is under 0.12 µg/mL.

And the “MIC Streptococcus pyogenes (GC 4563)” value (Streptococcus sp.; inoculum 5×10^5 CFU/mL, strain GC 4563)?
The value was 1 µg/mL (≈ 0.713 µM).

And the “MIC Streptococcus agalactiae (GC 4564)” value (Streptococcus sp.; inoculum 5×10^5 CFU/mL, strain GC 4564)?
The value was 0.25 µg/mL (≈ 0.178 µM).

And the “MIC Streptococcus pneumoniae (GC 4565)” value (Streptococcus sp.; inoculum 5×10^5 CFU/mL, strain GC 4565)?
The value was under 0.12 µg/mL.

What about the “MIC Enterococcus avium (GC 4558)” value (Enterococcus sp.) of the same molecule?
Its value is 2 µg/mL (≈ 1.43 µM).

What about the “MIC Enterococcus faecalis (ATCC 29212)” value (Enterococcus sp.) of the same molecule?
The value was 1 µg/mL (≈ 0.713 µM).

And the “MIC Enterococcus faecalis (GC 2242)” value (Enterococcus sp.)?
Its value is 2 µg/mL (≈ 1.43 µM).

And the “MIC Enterococcus faecalis (GC 2691)” value (Enterococcus sp.)?
Its value is 2 µg/mL (≈ 1.43 µM).

What about the “MIC Enterococcus faecalis (GC 3059)” value (Enterococcus sp.) of the same molecule?
Its value is 1 µg/mL (≈ 0.713 µM).

What about the “MIC Enterococcus faecalis (GC 4552)” value (Enterococcus sp.) of the same molecule?
The value was 2 µg/mL (≈ 1.43 µM).

And the “MIC Enterococcus faecalis (GC 4553)” value (Enterococcus sp.)?
Its value is 2 µg/mL (≈ 1.43 µM).

What about the “MIC Enterococcus faecalis (GC 4554)” value (Enterococcus sp.) of the same molecule?
Its value is 2 µg/mL (≈ 1.43 µM).

And the “MIC Enterococcus faecalis (GC 6189)” value (Enterococcus sp.)?
The value was 1 µg/mL (≈ 0.713 µM).

And the “MIC Enterococcus faecium (GC 2243)” value (Enterococcus sp.)?
The value was 2 µg/mL (≈ 1.43 µM).

And the “MIC Enterococcus faecium (GC 4556)” value (Enterococcus sp.)?
The value was 1 µg/mL (≈ 0.713 µM).

And the “MIC Enterococcus faecium (GC 4557)” value (Enterococcus sp.)?
The value was 2 µg/mL (≈ 1.43 µM).

What about the “MIC Enterococcus faecalis (ATCC 29212)” value (Enterococcus sp.; [3]) of the same molecule?
Its value is 1 µg/mL (≈ 0.713 µM).

And the “MIC Enterococcus faecalis (GC 2242)” value (Enterococcus sp.; [4])?
The value was 2 µg/mL (≈ 1.43 µM).

And the “MIC Enterococcus faecium (GC 2243)” value (Enterococcus sp.; [5])?
The value was 2 µg/mL (≈ 1.43 µM).

What about the “MIC Enterococcus faecalis (GC 2691)” value (Enterococcus sp.; inoculum 5×10^5 CFU/mL, strain GC 2691) of the same molecule?
The value was 2 µg/mL (≈ 1.43 µM).

And the “MIC Enterococcus faecalis (GC 3059)” value (Enterococcus sp.; inoculum 5×10^5 CFU/mL, strain GC 3059)?
Its value is 1 µg/mL (≈ 0.713 µM).

And the “MIC Enterococcus faecalis (GC 4552)” value (Enterococcus sp.; inoculum 5×10^5 CFU/mL, strain GC 4552)?
The value was 2 µg/mL (≈ 1.43 µM).

And the “MIC Enterococcus faecalis (GC 4553)” value (Enterococcus sp.; inoculum 5×10^5 CFU/mL, strain GC 4553)?
The value was 2 µg/mL (≈ 1.43 µM).

And the “MIC Enterococcus faecalis (GC 4554)” value (Enterococcus sp.; inoculum 5×10^5 CFU/mL, strain GC 4554)?
Its value is 2 µg/mL (≈ 1.43 µM).

What about the “MIC Enterococcus faecium (GC 4556)” value (Enterococcus sp.; [6]) of the same molecule?
Its value is 1 µg/mL (≈ 0.713 µM).

What about the “MIC Enterococcus faecium (GC 4557)” value (Enterococcus sp.; inoculum 5×10^5 CFU/mL, strain GC 4557) of the same molecule?
The value was 2 µg/mL (≈ 1.43 µM).

What about the “MIC Enterococcus avium (GC 4558)” value (Enterococcus sp.; [7]) of the same molecule?
Its value is 2 µg/mL (≈ 1.43 µM).

What about the “MIC Enterococcus faecalis (GC 6189)” value (Enterococcus sp.; [8]) of the same molecule?
The value was 1 µg/mL (≈ 0.713 µM).

What about the “MIC Staphylococcus aureus (ATCC 29213)” value (Staphylococcus sp.) of the same molecule?
The value was 1 µg/mL (≈ 0.713 µM).

And the “MIC Staphylococcus aureus (GC 1131)” value (Staphylococcus sp.)?
Its value is 1 µg/mL (≈ 0.713 µM).

What about the “MIC Staphylococcus aureus (GC 3051)” value (Staphylococcus sp.; strain GC 3051) of the same molecule?
Its value is 1 µg/mL (≈ 0.713 µM).

What about the “MIC Staphylococcus aureus (GC 3053)” value (Staphylococcus sp.; strain GC 3053) of the same molecule?
Its value is 1 µg/mL (≈ 0.713 µM).

What about the “MIC Staphylococcus aureus (GC 4541)” value (Staphylococcus sp.) of the same molecule?
Its value is 1 µg/mL (≈ 0.713 µM).

And the “MIC Staphylococcus aureus (GC 4542)” value (Staphylococcus sp.; strain GC 4542)?
The value was 1 µg/mL (≈ 0.713 µM).

And the “MIC Staphylococcus aureus-SMITH (GC 4543)” value (Staphylococcus sp.)?
Its value is 1 µg/mL (≈ 0.713 µM).

And the “MIC Staphylococcus aureus (GC 4544)” value (Staphylococcus sp.; strain GC 4544)?
Its value is 1 µg/mL (≈ 0.713 µM).

What about the “MIC Staphylococcus aureus (GC 4545)” value (Staphylococcus sp.; strain GC 4545) of the same molecule?
The value was 1 µg/mL (≈ 0.713 µM).

And the “MIC Staphylococcus haemolyticus (GC 4546)” value (Staphylococcus sp.; strain GC 4546)?
Its value is 0.5 µg/mL (≈ 0.356 µM).

And the “MIC Coagulase Negative Staphylococcus (GC 4547)” value (Staphylococcus sp.)?
The value was 1 µg/mL (≈ 0.713 µM).

And the “MIC Coagulase Negative Staphylococcus (GC 4548)” value (Staphylococcus sp.)?
The value was 0.5 µg/mL (≈ 0.356 µM).

What about the “MIC Coagulase Negative Staphylococcus (GC 4549)” value (Staphylococcus sp.) of the same molecule?
Its value is 0.5 µg/mL (≈ 0.356 µM).

What about the “MIC Coagulase Negative Staphylococcus (GC 4551)” value (Staphylococcus sp.; strain GC 4551) of the same molecule?
Its value is 1 µg/mL (≈ 0.713 µM).

What about the “MIC Escherichia coli (ATCC 25922)” value (Escherichia coli) of the same molecule?
Its value is 32 µg/mL (≈ 22.8 µM).

And the “MIC Escherichia coli (GC 4559)” value (Escherichia coli)?
The value was 32 µg/mL (≈ 22.8 µM).

And the “MIC Escherichia coli (GC 4560)” value (Escherichia coli)?
The value was 1 µg/mL (≈ 0.713 µM).
